Results published in patent US20150315188A1, “COMPOUNDS AND METHODS FOR TREATMENT OF HYPERTENSION” (MEDIVATION TECHNOLOGIES, INC., priority 2012, published 2015).
Where “and” joins values, the source holds several entries; their conditions need not be identical. Equal entries are not always repeated.

Key:
Parameters in all cases: purchased Milipore (Millipore)
[1] = target: T1, Human adrenergic α2B receptor (Homo sapiens, UniProt P18089); experiment: Radioligand binding, adrenergic α2B (Protocol Group B); details: Protocol Group B; for Percentage inhibition of ligand binding, Adrenergic α2B (10 nM): 0.01 µM; for Percentage inhibition of ligand binding, Adrenergic α2B (30 nM): 30 nM compound, 0.03 µM; for Percentage inhibition of ligand binding, Adrenergic α2B (0.1 μM): 0.1 μM compound
T1 sequence (P18089 1-450): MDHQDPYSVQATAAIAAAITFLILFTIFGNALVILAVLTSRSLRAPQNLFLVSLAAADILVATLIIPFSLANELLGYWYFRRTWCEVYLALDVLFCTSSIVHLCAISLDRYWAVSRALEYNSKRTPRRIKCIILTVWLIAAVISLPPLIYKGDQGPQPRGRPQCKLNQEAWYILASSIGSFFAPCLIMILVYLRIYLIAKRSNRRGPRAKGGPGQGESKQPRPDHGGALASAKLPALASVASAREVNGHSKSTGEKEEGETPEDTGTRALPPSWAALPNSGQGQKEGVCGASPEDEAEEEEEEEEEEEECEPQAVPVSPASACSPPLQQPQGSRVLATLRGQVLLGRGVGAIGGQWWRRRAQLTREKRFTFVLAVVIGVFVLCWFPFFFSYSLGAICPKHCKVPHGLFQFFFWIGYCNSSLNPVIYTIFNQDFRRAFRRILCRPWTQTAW
Procedure: To evaluate the activity of compounds in radioligand binding assays, Human adrenergic α2B receptor obtained from recombinant cell membrane from Milipore. Binding experiments were carried out in Tris-HCl buffer (50 mM Tris-HCl buffer, pH 7.4, 5 mM Mgcl2, 1 mM Cacl2, 0.2% BSA) as recommended by Milipore. […] Non-specific binding was estimated in the presence of 10 μM Rauwolscine. […] Compounds were screened at various concentrations, using 1% DMSO as vehicle. Biochemical assay results are presented as the percent Inhibition of specific binding in Table B1b, or estimated Ki values in Table B1c.

[2] = target: T2, Human adrenergic α2A receptor (Homo sapiens, UniProt P08913); experiment: Radioligand binding, adrenergic α2A (Protocol Group B); details: Protocol Group B; for Percentage inhibition of ligand binding, Adrenergic α2A (0.1 μM): 0.1 μM compound
T2 sequence (P08913 1-465): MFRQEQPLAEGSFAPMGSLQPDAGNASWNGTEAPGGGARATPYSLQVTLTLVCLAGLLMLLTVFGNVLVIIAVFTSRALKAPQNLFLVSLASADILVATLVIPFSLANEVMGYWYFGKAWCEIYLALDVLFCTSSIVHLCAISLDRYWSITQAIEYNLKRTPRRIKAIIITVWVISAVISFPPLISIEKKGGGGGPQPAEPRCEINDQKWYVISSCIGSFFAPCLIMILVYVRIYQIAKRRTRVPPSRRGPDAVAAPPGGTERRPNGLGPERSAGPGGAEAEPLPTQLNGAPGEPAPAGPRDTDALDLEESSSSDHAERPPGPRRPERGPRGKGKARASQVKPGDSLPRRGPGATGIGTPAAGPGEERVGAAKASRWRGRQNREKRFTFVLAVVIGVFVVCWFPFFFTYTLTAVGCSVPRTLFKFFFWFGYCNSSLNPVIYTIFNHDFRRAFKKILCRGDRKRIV
Procedure: To evaluate the activity of compounds in radioligand binding assays, Human adrenergic α2A receptor obtained from recombinant cell membrane from Milipore. Binding experiments were carried out in Tris-HCl buffer (50 mM Tris-HCl buffer, pH 7.4, 5 mM Mgcl2, 1 mM Cacl2, 0.2% BSA) as recommended by Milipore. Compounds were incubated with 2 nM [^3H]MK-912 for 60 min at 25° C. Non-specific binding was estimated in the presence of 10 μM Rauwolscine. Receptor proteins were harvested on 0.33% PEI(poly-ethylenemine) soaked GFC filter mat, the specifically bound [^3H]MK-912 were counted to determine total binding. Compounds were screened at various concentrations, using 1% DMSO as vehicle. percent inhibition of specific binding was determined. Biochemical assay results are presented as the percent Inhibition of specific binding in Table B1b, or estimated Ki values in Table B1c.

[3] = target: T3, Human adrenergic α1B receptor (Homo sapiens, UniProt P35368); experiment: Radioligand binding, adrenergic α1B (Protocol Group B); details: Protocol Group B; for Percentage inhibition of ligand binding, Adrenergic α1B (0.1 μM): 0.1 μM compound; for Percentage inhibition of ligand binding, Adrenergic α1B (0.3 μM): 0.3 μM compound
T3 sequence (P35368 1-520): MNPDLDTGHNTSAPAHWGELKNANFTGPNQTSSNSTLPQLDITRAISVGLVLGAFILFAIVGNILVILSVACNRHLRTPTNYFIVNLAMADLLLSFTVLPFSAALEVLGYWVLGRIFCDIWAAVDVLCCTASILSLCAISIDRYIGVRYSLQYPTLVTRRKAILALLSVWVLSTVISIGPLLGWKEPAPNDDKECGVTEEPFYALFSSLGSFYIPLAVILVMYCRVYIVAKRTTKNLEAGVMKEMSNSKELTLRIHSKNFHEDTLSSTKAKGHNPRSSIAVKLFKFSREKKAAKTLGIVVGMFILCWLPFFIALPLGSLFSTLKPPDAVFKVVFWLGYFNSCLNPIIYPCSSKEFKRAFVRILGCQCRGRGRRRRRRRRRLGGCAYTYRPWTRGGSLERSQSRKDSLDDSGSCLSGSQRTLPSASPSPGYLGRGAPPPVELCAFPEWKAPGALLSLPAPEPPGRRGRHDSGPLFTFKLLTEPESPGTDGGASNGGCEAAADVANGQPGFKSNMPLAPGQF
Procedure: To evaluate the activity of compounds in radioligand binding assays, Human adrenergic α1B receptor obtained from recombinant cell membrane from Milipore. Binding experiments were carried out in Tris-HCl buffer (50 mM Tris-HCl buffer, pH 7.4, 10 mM Mgcl2, 1 mM EDTA) as recommended by Milipore. Compounds were incubated with 0.3 nM [^3H]Prazosin for 60 min at 25° C. Non-specific binding was estimated in the presence of 10 μM prazosin. Receptor proteins were harvested on 0.33% PEI(poly-ethylenemine) soaked GFC filter mat, the specifically bound [^3H]Prazosin were counted to determine total binding. Compounds were screened at various concentrations, using 1% DMSO as vehicle. percent inhibition of specific binding was determined. Biochemical assay results are presented as the percent Inhibition of specific binding in Table B1b, or estimated Ki values in Table B1c.

SMILES	Percentage inhibition of ligand binding, Adrenergic α2B (10 nM) ([1]; 10 nM compound) [%]	Percentage inhibition of ligand binding, Adrenergic α2B (30 nM) [1]	Percentage inhibition of ligand binding, Adrenergic α2B (0.1 μM) [1] [%]	Percentage inhibition of ligand binding, Adrenergic α2A (0.1 μM) [2] [%]	Percentage inhibition of ligand binding, Adrenergic α2A (0.3 μM) ([2]; 0.3 μM compound, 0.3 µM) [%]	Percentage inhibition of ligand binding, Adrenergic α1B (0.1 μM) ([3]; 0.1 µM) [%]	Percentage inhibition of ligand binding, Adrenergic α1B (0.3 μM) [3] [%]	inhibition at 0.3 µM ([2]; 0.3 μM compound, read-out: Percentage inhibition of ligand binding, Adrenergic α2A (0.3 μM)) [%]	Percentage inhibition of ligand binding, Adrenergic α2A (0.3 μM) ([2]; 0.3 μM compound) [%]	inhibition at 0.01 µM ([1]; 10 nM compound, read-out: Percentage inhibition of ligand binding, Adrenergic α2B (10 nM)) [%]	Percentage inhibition of ligand binding, Adrenergic α1B (0.1 μM) [3] [%]
OC(Cn1c2c(c3cc(F)ccc31)C1CCCN1CC2)c1ccncc1 (single isomer, unassigned) [18a]	41	58%	80	−7	38	20	55	–	–	–	–
OC(Cn1c2c(c3cc(F)ccc31)C1CCCN1CC2)c1ccncc1 (single isomer, unassigned) [18c]	17	13%	22	7	0	5	6	–	–	–	–
OC(Cn1c2c(c3cc(F)ccc31)C1CCCN1CC2)c1ccncc1 (single isomer, unassigned) [18d]	11	32% and 36%	79	8	20	15	24	–	–	–	–
Cc1cc(C)c2c(c1)c1c(n2CC(C)(O)c2ccncc2)CCN2CCCC12 (single isomer, unassigned) [19c]	−13	−12%	6	−7	1	−5	−1	–	–	–	–
Cc1cc(C)c2c(c1)c1c(n2CC(C)(O)c2ccncc2)CCN2CCCC12 (single isomer, unassigned) [19d]	−9	−4%	−1	−8	−5	−8	−5	–	–	–	–
Cc1ccc2c(c1)c1c(n2CC(O)c2cccnc2)CC2CCCN2C1 (single isomer, unassigned) [27a]	6	10%	33	3	–	0	15	20	–	–	–
Cc1ccc2c(c1)c1c(n2CC(O)c2cccnc2)CC2CCCN2C1 (single isomer, unassigned) [27b]	26	48%	67	10	–	13	41	–	20	–	–
CC(O)(Cn1c2c(c3cc(F)ccc31)C1CCCN1CC2)c1ccncc1 (single isomer, unassigned) [31c]	–	−2%	45	0	−21	1	−4	–	–	3	–
CC(O)(Cn1c2c(c3cc(F)ccc31)C1CCCN1CC2)c1ccncc1 (single isomer, unassigned) [31d]	4	−11%	17	−11	6	0	11	–	–	–	–
Cc1ccc2c(c1)c1c(n2CC(C)(O)c2cnc3ccccc3c2)CCN(C)C1 (single isomer, unassigned) [32b]	0	14%	–	−5	9	–	13	–	–	–	−1
